# Test results as given in PMC6330093 (Bioconjugate chemistry, 2017).
# How the values were obtained:
# [1] = target: proteinase K (Parengyodontium album, UniProt P06873); experiment: HPLC-based proteolysis assay with proteinase K; type: in vitro ADME
# [2] = variable temperature CD, 50 μM protein, 20 mM sodium phosphate buffer, pH 7
# proteinase K, sequence (P06873 106-384, species assumed): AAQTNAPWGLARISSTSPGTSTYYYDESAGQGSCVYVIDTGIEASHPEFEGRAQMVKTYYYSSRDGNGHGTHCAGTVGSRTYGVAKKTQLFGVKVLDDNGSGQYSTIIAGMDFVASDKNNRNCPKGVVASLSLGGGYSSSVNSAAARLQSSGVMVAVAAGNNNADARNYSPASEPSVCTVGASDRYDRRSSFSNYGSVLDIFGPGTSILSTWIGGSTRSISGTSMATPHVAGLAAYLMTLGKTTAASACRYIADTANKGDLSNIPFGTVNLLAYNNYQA
compound,measurement,setting,value
CC[C@H](C)[C@H](NC(=O)[C@H](Cc1c[nH]cn1)NC(=O)[C@H](CC(N)=O)NC(=O)[C@H](Cc1ccccc1)NC(=O)[C@H](Cc1ccc(O)cc1)NC(=O)[C@H](Cc1ccc(O)cc1)NC(=O)[C@@H](NC(=O)[C@H](CCCNC(=N)N)NC(=O)CNC(=O)[C@H](CO)NC(=O)[C@H](CCC(N)=O)NC(=O)[C@H](CCCNC(=N)N)NC(=O)[C@H](CO)NC(=O)[C@H](CCSC)NC(=O)[C@H](CCCNC(=N)N)NC(=O)[C@H](CCCCN)NC(=O)[C@H](CCC(=O)O)NC(=O)[C@H](Cc1c[nH]c2ccccc12)NC(=O)CNC(=O)[C@@H]1CCCN1C(=O)[C@@H]1CCCN1C(=O)[C@H](CC(C)C)NC(=O)[C@@H](N)CCCCN)C(C)C)C(=O)N[C@H](C(=O)N[C@@H](CC(N)=O)C(=O)N[C@@H](C)C(=O)N[C@@H](CO)C(=O)N[C@@H](CCC(N)=O)C(=O)N[C@@H](Cc1ccccc1)C(=O)N[C@@H](CCC(=O)O)C(=O)N[C@@H](CCCNC(=N)N)C(=O)N1CCC[C@H]1C(=O)N[C@@H](CO)C(=O)NCC(=O)O)[C@@H](C)O [18Q],"k, apparent proteolysis rate constant",[1],7.8 ±0.4 s^−1 × 10^3
same,Tm (melting temperature),[2],58.5 ±0.2 °C
